Here are results for two molecules from US8691790B2, “Therapy of neurological inflammatory diseases with (5'-deoxy-5'-adenosyl) cobamamide, recombinant human growth hormone, interleukins IL-1, IL-6, IL-11, epidermal growth factor, and physiotherapy” (priority 2009, dated 2014).

Entries after “also recorded” stand apart in the source; their conditions may differ.

In assay [1] the test system is clinically definite MS patient in the Secondary Progressive stage of MS (SPMS). Kind of assay: Scoping experiment in therapy with daily AdoCbl injections in one MS patient. It counts as in vivo, human. The text has this: The current patent, by Boucher, teaches the effective use of AdoCbl, by itself, for therapy of MS and other neurological inflammatory diseases and neurodegenerative diseases. […] Approximately 10 years ago the MS Patient was deemed to be in the Secondary Progressive Multiple Sclerosis (SPMS) stage due to the unremitting accumulation of disability. The MS Patient had loss of memory, cognitive impairment, loss of balance, fatigue, nocturia, not able to lift right foot from the floor, not able to raise right hand, not able to write with the right hand or to use a computer keyboard with the right hand, not able to grip with the right hand, not able to eat with a fork in the right hand, had poor heat tolerance, and was marginally ambulatory with a rollator. The MS patient was more affected on the right side than on the left, which prevented the use of a manual wheelchair. A scoping experiment in therapy with daily injections of 1000 mcg of AdoCbl was initiated. […] After three days, the injection size was increased to 5000 mcg of AdoCbl daily. The MS Patient had been making daily injections of 20 mg Copaxone, but these were stopped for about two months when the scoping experiment with daily injections of AdoCbl was initiated. […] The current patent, by Boucher, teaches that AdoCbl, by itself, provides effective therapy of MS and other inflammatory diseases, that AdoCbl facilitates remyelination, that AdoCbl stops secondary progression of disability in MS and allows extensive recovery from the symptoms of MS. The scoping experiment in therapy with AdoCbl was intended as a test of the etiological hypothesis that the enzyme ATP: Cob (I) alamin adenosyltransferase (ATR) in the CSF was a target of the immune system, which was a major factor in the development of MS. The results of the scoping experiment in therapy strongly support the proposed etiological hypothesis. There are missing details, potentially. Therefore, this patent is not to be restricted to addressing the proposed etiological hypothesis, as other etiological processes are possible.
Prior art in the patent literature and in the published medical literature for therapy of MS has no example of therapy that stops and reverses the progressive accumulation of disability.
A scoping experiment in therapy by parenteral injection of at a dose of between 1 μg and 2.5 g daily AdoCbl into a human subject with clinically definite MS in the secondary progressive stage was conducted.

Assay [2] has as its system Chronic Progressive forms of MS. The settings on record: human trials reported in the literature; cited from earlier work.
For assay [3], the system named is Relapsing Remitting Multiple Sclerosis (RRMS). To be noted: human trials reported in the literature; cited from earlier work.

On to `C/C1=C2/[N-]C([C@H](CC(N)=O)[C@@]2(C)CCC(=O)NC[C@@H](C)OP(=O)([O-])O[C@H]2[C@@H](O)[C@@H](n3cnc4cc(C)c(C)cc43)O[C@@H]2CO)[C@]2(C)N=C(/C(C)=C3N=C(/C=C4N=C1[C@@H](CCC(N)=O)C\4(C)C)[C@@H](CCC(N)=O)[C@]\3(C)CC(N)=O)[C@@H](CCC(N)=O)[C@]2(C)CC(N)=O.[CH2-][C@H]1O[C@@H](n2cnc3c(N)ncnc32)[C@@H](O)[C@@H]1O.[Co+3]` [AdoCbl, (5′-deoxy-5′-adenosyl) cobamide], for which, in assay [1] (5000 mcg of AdoCbl daily, patient was marginally ambulatory with a rollator before), the ambulation result is “ambulatory and does not need a wheelchair”. In addition, the “effect on progression / accumulation of disability in MS” value in assay [1] (AdoCbl by itself, single SPMS patient, 98% pure AdoCbl, for more than one year) is “dramatic therapeutic effect; also recorded: stops the accumulation of disability and substantially reverses disability; also recorded: stopped and reversed chronic progression of MS; also recorded: effectiveness in stopping and even reversing the progressive accumulation of neurological damage”. The “ability to raise right hand” value in assay [1] (daily injections of 1000 mcg of AdoCbl, after three days, single SPMS patient) is given as “able to raise their right hand above their head”. Moreover, the “recovery of lost abilities and MS symptoms” value in assay [1] (injection size increased to 5000 mcg of AdoCbl daily after three days, Copaxone stopped for about two months, single SPMS patient) was “has recovered memory, cognition, normal balance, does not experience fatigue, no longer has nocturia, has recovered some ability with the right leg, is able to write with the right hand, use a computer keyboard with that right hand, and eat with a fork in the right hand”. The “recovery of abilities and symptoms (summary statement)” value in assay [1] (parenteral injection, dose of between 1 μg and 2.5 g daily AdoCbl, human subject, secondary progressive MS) is “regained physical abilities lost years before, regained memory and cognitive abilities, and had complete recovery from many common symptoms of MS such as fatigue and poor balance”. Further, the “need for continued AdoCbl injections” value in assay [1] (single SPMS patient) is on record as “necessary to prevent relapse to the common symptoms of MS”.
Copolymer-1: in assay [2], the “benefit in chronic progressive MS” value was “no effective benefit”. The “effect on rate of relapse” value in assay [3] is reported as “effective in lowering the rate of relapse”.
